Data: US8329737B2, “Benzimidazoles as selective kinase inhibitors” (YM Biosciences Australia PTY Ltd, priority 2004, dated 2012)

These compounds were tested against T1, Jak3 (Homo sapiens, UniProt P52333) (assay: JAK kinase assay (ELISA or Alphascreen), JAK3 kinase domain). Settings: after 20 minute incubation with enzyme (prior to addition of ATP); read-out: apparent “IC50”.
T1 construct: The kinase domain of humanJAK3 was amplified from U937mRNA; His tag (from the pFastBac HTb vector; purified on nickel chelate); made in house; host or cells: baculovirus; Sf9 for virus, High Five insect cells for production
T1 sequence (P52333 822-1111 limits assumed): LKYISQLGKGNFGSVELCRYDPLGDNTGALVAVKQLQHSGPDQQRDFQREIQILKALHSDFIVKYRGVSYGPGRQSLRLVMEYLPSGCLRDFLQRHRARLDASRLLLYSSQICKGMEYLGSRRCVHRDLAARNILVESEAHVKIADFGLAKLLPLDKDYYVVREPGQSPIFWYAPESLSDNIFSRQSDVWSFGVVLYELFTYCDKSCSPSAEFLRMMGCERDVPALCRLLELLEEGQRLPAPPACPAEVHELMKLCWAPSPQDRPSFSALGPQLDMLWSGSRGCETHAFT
Assay type: biochemical
Experimental: (§1) For screening purposes, compounds were diluted in 96 well plates at a concentration of 20 μM. Plates were warmed at 37° C. for 30 minutes before assay.
The kinase domain of humanJAK3 was amplified from U937mRNA using the polymerase chain reaction with the following primers: […]
JAK3 PCR products were cloned into the pFastBac HTb expression vector (Gibco®) via the Xho I and Kpn I sites. The JAK3 plasmid was then transformed into competent DH10Bac cells (Gibco®), and the recombinant baculovirus produced prepared for transfection into Sf9 insect cells.
(§2) Baculovirus preparations from each of the JAK family members were infected into five litres of High Five cells (Invitrogen) grown in High Five serum free medium (Invitrogen) to a cell density of approximately 1-2×10^6 cells/ml. Cells are infected with virus at a MOI of 0.8-3.0. Cells were harvested and lysed. JAK kinase domains were purified by affinity chromatography on a Probond (Invitrogen) nickel chelate affinity column.
Kinase assays were performed in a 96 well capture-based ELISA assay or in 384 well Optiplates (Packard) using an Alphascreen Protein Tyrosine Kinase kit. In either case using approximately 1.5 μg of affinity purified PTK domain in the presence of 50 mM HEPES, pH 7.5, 10 mM MgCl2, 150 mM NaCl and 10 μM-1 mM ATP. The biotinylated substrate biotin-EGPWLEEEEEAYGWMDF-NH2 (SEQ ID NO:9) (final concentration 5 μM) was used as substrate. In the ELISA assay tyrosine phosphorylation was quantitated following transfer to an avidin coated ELISA plate using peroxidase-linked anti-phospho-tyrosine antibody PY20. In the Alphascreen assay, Alphascreen phosphotyrosine acceptor beads followed by streptavidin donor beads were added under subdued light. The ELISA plates were read on a BMG Fluorostar, the Alphascreen plates were read on a Packard Fusion Alpha. […] Inhibitors were added in aqueous DMSO, with DMSO concentrations never exceeding 1%.

IC50 [nM]	SMILES
~40	C=CC(=O)Nc1ccc2ncn(-c3cncc(NC(C)(C)C)n3)c2c1 [Example 20, N-{1-[6-(tert-Butylamino)pyrazin-2-yl]-1-H-benzimidazol-6-yl}acrylamide]

Same assay, conditions: after 90 min pre-incubation; read-out: apparent “IC50”

IC50 [nM]	SMILES
7	C=CC(=O)Nc1ccc2ncn(-c3cncc(NC(C)(C)C)n3)c2c1 [Example 20, N-{1-[6-(tert-Butylamino)pyrazin-2-yl]-1-H-benzimidazol-6-yl}acrylamide]

Same assay, conditions: capacity to inhibit 50% of JAK activity at 20 μM, standard conditions

SMILES	inhibition at 20 µM [%]	Jak3
C=CC(=O)Nc1ccc2ncn(-c3cncc(Nc4ccccc4)n3)c2c1 [N-[1-(6-Anilinopyrazin-2-yl)-1H-benzimidazol-6-yl]acrylamide]	–	+ (Compounds that exhibited a capacity to inhibit 50% of JAK activity at a concentration of 20 μM (measured under standard conditions, see Methods), are designated as “+”)
C=CC(=O)Nc1ccc2ncn(-c3cncc(-c4ccsc4)n3)c2c1 [N-[1-(6-Thien-3-ylpyrazin-2-yl)-1H-benzimidazol-6-yl]acrylamide]	> 50	–
C=CC(=O)Nc1ccc2ncn(-c3cncc(-c4ccncc4)n3)c2c1	> 50	–
C=CC(=O)Nc1ccc2ncn(-c3cncc(-c4cn[nH]c4)n3)c2c1 [N-{1-[6-(1H-Pyrazol-4-yl)pyrazin-2-yl]-1H-benzimidazol-6-yl}acrylamide]	> 50	–
C=CC(=O)Nc1ccc2ncn(-c3cncc(-c4ccc(C)o4)n3)c2c1	> 50	–
C=CC(=O)Nc1ccc2ncn(-c3cncc(-c4cccnc4)n3)c2c1	> 50	–
C=CC(=O)Nc1ccc2ncn(-c3cncc(-c4ccc(F)c(Cl)c4)n3)c2c1 [N-{1-[6-(3-Chloro-4-fluorophenyl)pyrazin-2-yl]-1H-benzimidazol-6-yl}acrylamide]	> 50	–
C=CC(=O)Nc1ccc2ncn(-c3cncc(-c4ccccc4)n3)c2c1 [N-[1-(6-Phenylpyrazin-2-yl)-1H-benzimidazol-6-yl]acrylamide]	> 50	–
C#CC(=O)Nc1ccc2ncn(-c3cncc(NC(C)(C)C)n3)c2c1	> 50	–
C=C(C)C(=O)Nc1ccc2ncn(-c3cncc(NC(C)(C)C)n3)c2c1	> 50	–
C=CC(=O)Nc1ccc2ncn(-c3cncc(N[C@@H](C)c4ccccc4)n3)c2c1 [N-[1-(6-([(1S)-1-Phenylethyl]amino]pyrazin-2-yl)-1H-benzimidazol-6-yl)acrylamide]	> 50	–

Continued, in another order:

inhibition at 20 µM [%]	SMILES	Jak3
> 50	C=CC(=O)Nc1ccc2ncn(-c3cncc(N4CCN(C)CC4)n3)c2c1 [N-{1-[6-(4-Methylpiperazin-1-yl)pyrazin-2-yl]-1H-benzimidazol-6-yl}acrylamide]	–
> 50	C=CC(=O)Nc1ccc2ncn(-c3cncc(N(C)C)n3)c2c1	–
> 50	C=CC(=O)Nc1ccc2ncn(-c3cncc(Cl)n3)c2c1 [N-[1-(6-Chloropyrazin-2-yl)-1H-benzimidazol-6-yl]acrylamide]	–
> 50	C=CC(=O)Nc1ccc2ncn(-c3cncc(N[C@H](C)CC)n3)c2c1	–
> 50	C=CC(=O)Nc1ccc2ncn(-c3cncc(NC(C)C)n3)c2c1 [N-{1-[6-(Isopropylamino)pyrazin-2-yl]-1H-benzimidazol-6-yl]acrylamide]	–
> 50	C=CC(=O)Nc1ccc2ncn(-c3cncc(NC)n3)c2c1 [N-{1-[6-(Methylamino)pyrazin-2-yl]-1H-benzimidazol-6-yl}acrylamide]	–
> 50	C=CC(=O)Nc1ccc2ncn(-c3cncc(N4CCOCC4)n3)c2c1 [N-[1-(6-morpholin-4-ylpyrazin-2-yl)-1H-benzimidazol-6-yl]acrylamide]	–
> 50	C=CC(=O)Nc1ccc2ncn(-c3cncc(NC(C)(C)C)n3)c2c1 [drawing 98]	–
> 50	C=CC(=O)Nc1ccc2ncn(-c3cncc(NCC4CC4)n3)c2c1	–
> 50	C=CC(=O)Nc1ccc2ncn(-c3cncc(N[C@@H](C)CC)n3)c2c1	–
> 50	C=CC(=O)Nc1ccc2ncn(-c3cncc(N(C)C(C)C)n3)c2c1	–
> 50	C=CC(=O)Nc1ccc2ncn(-c3cncc(N4CCCCC4)n3)c2c1	–
> 50	C=CC(=O)Nc1ccc2ncn(-c3cncc(N4CCCC4)n3)c2c1	–

The compounds below were run against T2, Jak2 (Homo sapiens, UniProt O60674) (assay: JAK kinase assay (ELISA or Alphascreen), JAK2 kinase domain). Settings: capacity to inhibit 50% of JAK activity at 20 μM, standard conditions.
T2 construct: The kinase domain of humanJAK2 was amplified from U937mRNA; His tag (from the pFastBac HTc vector; purified on nickel chelate); made in house; host or cells: baculovirus; Sf9 for virus, High Five insect cells for production
T2 sequence (O60674 849-1124 limits assumed): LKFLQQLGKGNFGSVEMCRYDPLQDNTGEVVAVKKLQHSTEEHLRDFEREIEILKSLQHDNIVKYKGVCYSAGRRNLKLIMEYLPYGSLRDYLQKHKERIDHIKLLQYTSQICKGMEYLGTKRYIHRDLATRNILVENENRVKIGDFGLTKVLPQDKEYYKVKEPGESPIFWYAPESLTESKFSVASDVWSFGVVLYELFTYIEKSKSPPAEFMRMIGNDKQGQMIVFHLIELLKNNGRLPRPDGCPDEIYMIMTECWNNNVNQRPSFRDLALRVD
Assay type: biochemical
Experimental: as §1
The kinase domain of humanJAK2 was amplified from U937mRNA using the polymerase chain reaction with the following primers: […]
JAK2 PCR products were cloned into the pFastBac HTc expression vector (Gibco®) via the Sal I and Not I sites. The JAK2 plasmid was then transformed into competent DH10Bac cells (Gibco®), and the recombinant baculovirus produced prepared for transfection into Sf9 insect cells.
as §2, with “JAK kinase domains were purified by affinity chromatography on a Probond (Invitrogen) nickel chelate affinity column.” left out
Kinase assays were performed in a 96 well capture-based ELISA assay or in 384 well Optiplates (Packard) using an Alphascreen Protein Tyrosine Kinase kit. […] In the ELISA assay tyrosine phosphorylation was quantitated following transfer to an avidin coated ELISA plate using peroxidase-linked anti-phospho-tyrosine antibody PY20. […] The ELISA plates were read on a BMG Fluorostar, the Alphascreen plates were read on a Packard Fusion Alpha. […]

SMILES	Jak2
C=CC(=O)Nc1ccc2ncn(-c3cncc(N[C@@H](C)c4ccccc4)n3)c2c1 [N-[1-(6-([(1S)-1-Phenylethyl]amino]pyrazin-2-yl)-1H-benzimidazol-6-yl)acrylamide]	+ (Compounds that exhibited a capacity to inhibit 50% of JAK activity at a concentration of 20 μM (measured under standard conditions, see Methods), are designated as “+”)
